Here are results for nine molecules from patent publication US20250059188A1, “ARYLSULPHONAMIDE COMPOUNDS” (Anaxis Pharma Pty Ltd, priority 2021, published 2025).

For orientation: Kd means the constant that tells how readily two partners part at equilibrium. High values mean weaker binding, low ones tighter binding. A word on the IC50: it is the concentration that gives 50% inhibition.

Assay [1] concerns the target human MLKL (full length) (Homo sapiens (Human), UniProt Q8NB16). Put plainly: KINOMEscan binding assay, human MLKL (full length). Conditions: equilibrium dissociation constant. Summed up:
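Active-site competition binding: DNA-tagged kinase (T7 phage fusion from BL21-derived E. coli lysate, or HEK-293-expressed) captured on immobilized-ligand beads, with bound kinase in the eluate quantified by qPCR. Compounds ran as 11-point 3-fold dilutions, 1% DMSO, top 30,000 nM for most. Kd came from a Hill fit (slope −1).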

The subject of assay [2] is Immortalised Mouse Dermal Fibroblasts (MDFs). Briefly: Inhibition of TSI induced necroptosis in mouse dermal fibroblasts (CellTitre-Glo). Conditions: Mus musculus, Fibroblast, 3 h, MDF cells, TSI cocktail (TNF, Smac mimetic, IDN-6556), read-out: Inhibition of TSI-induced necroptosis (IC50 cell-based assay) in MDF. Summed up: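 Immortalised MDFs (2200 cells/well, DMEM + 7.4% FBS) pretreated 30 min with compound (36 μM top, 1:3, 10 points, 0.3% DMSO), then 3 h with TNF 100 ng/ml, Smac mimetic 500 nM and IDN-6556 10 μM at 37 °C. Viability by CellTiter-Glo luminescence; IC50 from 4-parameter logistic fit.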

Chain of human MLKL (full length) (Q8NB16 whole entry, the tested form may be a part): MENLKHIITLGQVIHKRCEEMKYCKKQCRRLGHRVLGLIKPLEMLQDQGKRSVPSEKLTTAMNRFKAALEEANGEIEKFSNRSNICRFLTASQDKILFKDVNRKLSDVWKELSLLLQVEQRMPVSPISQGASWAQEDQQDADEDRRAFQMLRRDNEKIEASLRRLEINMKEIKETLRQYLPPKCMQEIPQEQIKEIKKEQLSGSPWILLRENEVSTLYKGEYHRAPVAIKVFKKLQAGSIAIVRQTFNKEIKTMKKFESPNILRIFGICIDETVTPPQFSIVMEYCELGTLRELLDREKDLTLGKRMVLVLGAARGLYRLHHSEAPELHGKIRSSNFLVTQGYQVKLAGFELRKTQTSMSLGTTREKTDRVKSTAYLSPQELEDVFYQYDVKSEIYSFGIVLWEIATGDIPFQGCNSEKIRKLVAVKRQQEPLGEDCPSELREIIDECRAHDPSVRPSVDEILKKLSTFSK

For `C[C@H](Oc1cc(-c2nn(C)c3c(-c4cnn(C5CC6CCC(C5)N6CC(F)(F)F)c4)cnc(N)c23)ccc1NS(=O)(=O)C(F)F)c1ccc(F)cc1` (stereo partly drawn) [Compound 153, N-(4-(4-amino-1-methyl-7-(1-(8-(2,2,2-trifluoroethyl)-8-azabicyclo[3.2.1]octan-3-yl)-1H-pyrazol-4-yl)-1H-pyrazolo[4,3-c]pyridin-3-yl)-2-((S)-1-(4-fluorophenyl)ethoxy)phenyl)-1,1-difluoromethanesulfonamide], in assay [1], the dissociation constant Kd fell in the range of 1 to 100 nM. For the same molecule, the IC50 in assay [2] lay within 100 to 1000 nM.

For `Cc1c(-c2cnc(N)c3c(-c4ccc(NS(=O)(=O)C(F)F)c(O[C@@H](C)c5ccc(F)cc5)c4)nn(C)c23)cnn1C1CCN(C)C(C)(C)C1` (stereo partly drawn) [Compound 157, N-(4-(4-amino-1-methyl-7-(5-methyl-1-(1,2,2-trimethylpiperidin-4-yl)-1H-pyrazol-4-yl)-1H-pyrazolo[4,3-c]pyridin-3-yl)-2-((S)-1-(4-fluorophenyl)ethoxy)phenyl)-1,1-difluoromethanesulfonamide], the Kd in assay [1] lay within 1 to 100 nM. In assay [2], the IC50 lay in the range of 1000 to 10000 nM.

The molecule `C[C@H](Oc1cc(-c2nn(C)c3c(-c4cnn(C5CCN(C)C(C)(C)C5)c4)cnc(N)c23)ccc1NS(=O)(=O)C(F)F)c1ccc(Cl)cc1` (stereo partly drawn) [Compound 159, N-(4-(4-amino-1-methyl-7-(1-(1,2,2-trimethylpiperidin-4-yl)-1H-pyrazol-4-yl)-1H-pyrazolo[4,3-c]pyridin-3-yl)-2-((S)-1-(4-chlorophenyl)ethoxy)phenyl)-1,1-difluoromethanesulfonamide] showed a Kd in assay [1] below 1 nM. For the same molecule, in assay [2], the IC50 is below 100 nM.

In assay [1], `C[C@H](Oc1cc(-c2nn(C)c3c(-c4cnn(C5CC(C)(C)N(C)C(C)(C)C5)c4)cnc(N)c23)ccc1NS(=O)(=O)C(F)F)c1ccc(F)cc1` [Compound 162, (S)-N-(4-(4-amino-1-methyl-7-(1-(1,2,2,6,6-pentamethylpiperidin-4-yl)-1H-pyrazol-4-yl)-1H-pyrazolo[4,3-c]pyridin-3-yl)-2-(1-(4-fluorophenyl)ethoxy)phenyl)-1,1-difluoromethanesulfonamide] displayed a Kd below 1 nM. The IC50 in assay [2] was below 100 nM.

As to `C[C@H](Oc1cc(-c2nn(C)c3c(-c4cnn(C5C[C@H]6CNC[C@H]6C5)c4)cnc(N)c23)ccc1NS(=O)(=O)C(F)F)c1ccc(F)cc1` (stereo partly drawn) [Compound 163, N-(4-(4-amino-1-methyl-7-(1-((3aR,6aS)-octahydrocyclopenta[c]pyrrol-5-yl)-1H-pyrazol-4-yl)-1H-pyrazolo[4,3-c]pyridin-3-yl)-2-((S)-1-(4-fluorophenyl)ethoxy)phenyl)-1,1-difluoromethanesulfonamide], the Kd in assay [1] is below 1 nM. For the same molecule, the half-inhibitory concentration (IC50) in assay [2] is 1000 to 10000 nM.

Consider `C[C@H](Oc1cc(-c2nn(C)c3c(-c4cnn(C5C[C@@H]6CN(C)C[C@@H]6C5)c4)cnc(N)c23)ccc1NS(=O)(=O)C(F)F)c1ccc(F)cc1` (stereo partly drawn) [Compound 164, N-(4-(4-amino-1-methyl-7-(1-((3aR,6aS)-2-methyloctahydrocyclopenta[c]pyrrol-5-yl)-1H-pyrazol-4-yl)-1H-pyrazolo[4,3-c]pyridin-3-yl)-2-((S)-1-(4-fluorophenyl)ethoxy)phenyl)-1,1-difluoromethanesulfonamide], for which, in assay [1], the Kd is below 1 nM. In assay [2], the IC50 was below 100 nM.

In assay [1], `C[C@H](Oc1cc(-c2nn(C)c3c(-c4ccc5c(cnn5C)c4)cnc(N)c23)ccc1NS(=O)(=O)C(F)F)c1ccc(F)cc1` [Compound 166, (S)-N-(4-(4-amino-1-methyl-7-(1-methyl-1H-indazol-5-yl)-1H-pyrazolo[4,3-c]pyridin-3-yl)-2-(1-(4-fluorophenyl)ethoxy)phenyl)-1,1-difluoromethanesulfonamide] registered a Kd of 1 to 100 nM. In addition, in assay [2], the IC50 is 1000 to 10000 nM.

For the molecule `C[C@H](Oc1cc(-c2nn(C)c3c(-c4cnn(C5CCN(CC(F)(F)F)C(C)(C)C5)c4)cnc(N)c23)ccc1NS(=O)(=O)C(F)F)c1ccc(F)cc1` (stereo partly drawn) [Compound 167, N-(4-(4-amino-7-(1-(2,2-dimethyl-1-(2,2,2-trifluoroethyl)piperidin-4-yl)-1H-pyrazol-4-yl)-1-methyl-1H-pyrazolo[4,3-c]pyridin-3-yl)-2-((S)-1-(4-fluorophenyl)ethoxy)phenyl)-1,1-difluoromethanesulfonamide], in assay [1], the Kd was in the range of 1 to 100 nM. For the same molecule, the IC50 in assay [2] was below 100 nM.

On to `CC1CN(C)CC(C)C1n1cc(-c2cnc(N)c3c(-c4ccc(NS(=O)(=O)C(F)F)c(O[C@@H](C)c5ccc(F)cc5)c4)nn(C)c23)cn1` (stereo partly drawn) [Compound 172, N-(4-{4-amino-1-methyl-7-[1-(1,3,5-trimethylpiperidin-4-yl)-1H-pyrazol-4-yl]-1H-pyrazolo[4,3-c]pyridin-3-yl}-2-[(1S)-1-(4-fluorophenyl)ethoxy]phenyl)-1,1-difluoromethanesulfonamide], for which, in assay [1], the Kd is 1 to 100 nM. The IC50 in assay [2] is below 100 nM.
